Test results: patent US8715638B2, “Ethenyl-substituted pyridine and pyrimidine derivatives and their use in treating viral infections” (Merck Sharp & Dohme Corp., priority 2008, dated 2014)

The molecules below were run on HCV replicon cells (assay: Cell-based HCV Replicon Assay). Conditions: Hepatitis C virus, 72 h; HCV replicon RNA level by real time PCR (Taqman), cells harvested on day 3; EC90 = concentration to achieve ΔCT=3.2 over baseline.
Experimental: Assays Cell-based HCV Replicon Assay
To measure cell-based anti-HCV activity of the compounds of the present invention, replicon cells were seeded at 5000 cells/well in 96-well collagen I-coated Nunc plates in the presence of the compound of the invention. […] The final concentration of DMSO was 0.5%, fetal bovine serum was 10%, in the assay media. […] The replicon RNA level was measured using real time PCR (Taqman assay). The amplicon was located in 5B. […] GAPDH RNA was used as endogenous control and was amplified in the same reaction as NS5B (multiplex PCR) using primers and VIC-labeled probe recommended by the manufacturer (PE Applied Biosystem). The real-time RT-PCR reactions were run on ABI PRISM 7900HT Sequence Detection System using the following program: 48° C. for 30 min, 95° C. for 10 min, 40 cycles of 95° C. for 15 sec, 60° C. for 1 min. The ΔCT values (CT5B-CTGAPDH) were plotted against the concentration of test compound and fitted to the sigmoid dose-response model using GraphPad PRISM software. EC50 was defined as the concentration of inhibitor necessary to achieve ΔCT=1 over the projected baseline; EC90 the concentration necessary to achieve ΔCT=3.2 over the baseline. Alternatively, to quantitate the absolute amount of replicon RNA, a standard curve was established by including serially diluted T7 transcripts of replicon RNA in the Taqman assay. All Taqman reagents were from PE Applied Biosystems. Such an assay procedure was described in detail in e.g. Malcolm et al., Antimicrobial Agents and Chemotherapy 50: 1013-1020 (2006).

With Nc1nc(Cl)c(/C=C/c2cc(F)cc(F)c2)c(N[C@@H]2C[C@H](CO)[C@@H](O)[C@H]2O)n1 [compound 4] as the molecule, how does the EC90 read?
The EC90 was ≤ 5 µM.

For Nc1nc(Cl)c(/C=C/c2ccc(F)c(F)c2)c(N[C@@H]2C[C@H](CO)[C@@H](O)[C@H]2O)n1 [compound 6], which EC90 is on record?
The EC90 was ≤ 5 µM.

For Nc1nc(Cl)c(/C=C/c2cccc(F)c2F)c(N[C@@H]2C[C@H](CO)[C@@H](O)[C@H]2O)n1 [compound 9], which EC90 is on record?
The EC90 was ≤ 5 µM.

Which EC90 does the source give for Nc1nc(Cl)c(/C=C/c2cccc(Oc3ccccc3)c2)c(N[C@@H]2C[C@H](CO)[C@@H](O)[C@H]2O)n1 [compound 10] here?
Its EC90 is ≤ 5 µM.

Which EC90 does the source give for Cc1ccccc1/C=C/c1c(Cl)nc(N)nc1N[C@@H]1C[C@H](CO)[C@@H](O)[C@H]1O [compound 13] here?
The EC90 was > 5 µM.

How did the EC90 turn out when Nc1nc(Cl)c(/C=C/c2ccccc2F)c(N[C@@H]2C[C@H](CO)[C@@H](O)C2)n1 [compound 15] was run?
Its EC90 is > 5 µM.

Which EC90 does the source give for CSc1nc(N)nc(N[C@@H]2C[C@H](CO)[C@@H](O)[C@H]2O)c1/C=C/c1ccccc1 [compound 16] here?
The EC90 was > 5 µM.

With Nc1nc(Cl)c(/C=C/c2ccccc2Cl)c(N[C@H]2C=C[C@@H](CO)C2)n1 [compound 17] as the molecule, how does the EC90 read?
The EC90 was > 5 µM.
